According to patent US20260356819A1, “OXOISOINDOLINYL-SUBSTITUTED […] DERIVATIVE AND USE THEREOF” (GLUETACS THERAPEUTICS (SHANGHAI) CO., LTD., priority 2023, published 2026):

How the values were obtained:
Assay type in all cases: cell-based
Details in all cases: compounds at 50 nM and 500 nM
GSPT1 = target: T1, GSPT1 (Homo sapiens, UniProt P15170+Q96SW2); test: Western blot degradation of GSPT1 in hPBMCs (24 h)
T1 construct: The supernatant was aspirated as the extracted total cell protein; endogenous in cells; host or cells: human peripheral blood mononuclear cells (hPBMCs)
Summary of the method: (§1)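 Immunoblot densitometry quantifies target loss in hPBMCs after a 24 h compound exposure (50 nM, 500 nM). Percent remaining is normalised band intensity; DC50 is the concentration giving half the DMSO-control band grayscale.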

IKZF3 = target: T2, IKZF3 (Homo sapiens, UniProt Q96SW2+Q9UKT9); test: Western blot degradation of IKZF3 in hPBMCs (24 h)
T2 construct: The supernatant was aspirated as the extracted total cell protein; endogenous in cells; host or cells: human peripheral blood mononuclear cells (hPBMCs)
Summary of the method: as §1

CK1α = target: T3, CK1α (Homo sapiens, UniProt P48729+Q96SW2); test: Western blot degradation of CK1α in hPBMCs (24 h)
T3 construct: The supernatant was aspirated as the extracted total cell protein; endogenous in cells; host or cells: human peripheral blood mononuclear cells (hPBMCs)
Summary of the method: as §1

IKZF1 = target: T4, IKZF1 (Homo sapiens, UniProt Q13422+Q96SW2); test: Western blot degradation of IKZF1 in hPBMCs (24 h)
T4 construct: The supernatant was aspirated as the extracted total cell protein; endogenous in cells; host or cells: human peripheral blood mononuclear cells (hPBMCs)
Summary of the method: as §1

IKZF2 = target: T5, IKZF2 (Homo sapiens, UniProt Q96SW2+Q9UKS7); test: Western blot degradation of IKZF2 in hPBMCs (24 h)
T5 construct: The supernatant was aspirated as the extracted total cell protein; endogenous in cells; host or cells: human peripheral blood mononuclear cells (hPBMCs)
Summary of the method: as §1

WEE1 = target: T6, WEE1 (Homo sapiens, UniProt P30291+Q96SW2); test: Western blot degradation of WEE1 in hPBMCs (24 h)
T6 construct: The supernatant was aspirated as the extracted total cell protein; endogenous in cells; host or cells: human peripheral blood mononuclear cells (hPBMCs)
Summary of the method: as §1

T5 sequence (Q9UKS7 whole entry): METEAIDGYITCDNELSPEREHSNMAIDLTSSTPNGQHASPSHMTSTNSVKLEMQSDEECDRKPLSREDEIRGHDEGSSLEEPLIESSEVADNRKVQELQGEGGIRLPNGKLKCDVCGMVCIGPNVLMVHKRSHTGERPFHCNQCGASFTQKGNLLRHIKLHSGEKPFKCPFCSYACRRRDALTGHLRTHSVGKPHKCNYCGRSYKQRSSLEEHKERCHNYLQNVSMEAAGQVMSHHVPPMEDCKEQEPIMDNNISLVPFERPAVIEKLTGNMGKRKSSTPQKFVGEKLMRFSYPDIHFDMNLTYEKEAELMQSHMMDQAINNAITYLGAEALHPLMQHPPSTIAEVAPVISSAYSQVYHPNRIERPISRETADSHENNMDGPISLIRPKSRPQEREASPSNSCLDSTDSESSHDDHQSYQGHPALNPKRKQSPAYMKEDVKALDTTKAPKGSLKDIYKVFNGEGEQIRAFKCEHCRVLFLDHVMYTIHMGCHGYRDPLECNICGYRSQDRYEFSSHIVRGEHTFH
T5 sequence (Q96SW2 whole entry): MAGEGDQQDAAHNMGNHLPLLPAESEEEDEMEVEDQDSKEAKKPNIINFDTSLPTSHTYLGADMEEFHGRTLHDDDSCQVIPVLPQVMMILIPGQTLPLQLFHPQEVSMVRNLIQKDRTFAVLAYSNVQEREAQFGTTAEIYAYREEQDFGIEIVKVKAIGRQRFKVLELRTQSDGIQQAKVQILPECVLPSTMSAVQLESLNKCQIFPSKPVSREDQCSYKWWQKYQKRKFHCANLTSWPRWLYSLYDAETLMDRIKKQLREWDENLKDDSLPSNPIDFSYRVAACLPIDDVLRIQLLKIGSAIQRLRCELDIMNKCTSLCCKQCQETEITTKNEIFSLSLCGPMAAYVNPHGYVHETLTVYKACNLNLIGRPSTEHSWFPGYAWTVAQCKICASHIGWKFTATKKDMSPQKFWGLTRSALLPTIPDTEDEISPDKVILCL
T5 sequence (Q16531 whole entry partner): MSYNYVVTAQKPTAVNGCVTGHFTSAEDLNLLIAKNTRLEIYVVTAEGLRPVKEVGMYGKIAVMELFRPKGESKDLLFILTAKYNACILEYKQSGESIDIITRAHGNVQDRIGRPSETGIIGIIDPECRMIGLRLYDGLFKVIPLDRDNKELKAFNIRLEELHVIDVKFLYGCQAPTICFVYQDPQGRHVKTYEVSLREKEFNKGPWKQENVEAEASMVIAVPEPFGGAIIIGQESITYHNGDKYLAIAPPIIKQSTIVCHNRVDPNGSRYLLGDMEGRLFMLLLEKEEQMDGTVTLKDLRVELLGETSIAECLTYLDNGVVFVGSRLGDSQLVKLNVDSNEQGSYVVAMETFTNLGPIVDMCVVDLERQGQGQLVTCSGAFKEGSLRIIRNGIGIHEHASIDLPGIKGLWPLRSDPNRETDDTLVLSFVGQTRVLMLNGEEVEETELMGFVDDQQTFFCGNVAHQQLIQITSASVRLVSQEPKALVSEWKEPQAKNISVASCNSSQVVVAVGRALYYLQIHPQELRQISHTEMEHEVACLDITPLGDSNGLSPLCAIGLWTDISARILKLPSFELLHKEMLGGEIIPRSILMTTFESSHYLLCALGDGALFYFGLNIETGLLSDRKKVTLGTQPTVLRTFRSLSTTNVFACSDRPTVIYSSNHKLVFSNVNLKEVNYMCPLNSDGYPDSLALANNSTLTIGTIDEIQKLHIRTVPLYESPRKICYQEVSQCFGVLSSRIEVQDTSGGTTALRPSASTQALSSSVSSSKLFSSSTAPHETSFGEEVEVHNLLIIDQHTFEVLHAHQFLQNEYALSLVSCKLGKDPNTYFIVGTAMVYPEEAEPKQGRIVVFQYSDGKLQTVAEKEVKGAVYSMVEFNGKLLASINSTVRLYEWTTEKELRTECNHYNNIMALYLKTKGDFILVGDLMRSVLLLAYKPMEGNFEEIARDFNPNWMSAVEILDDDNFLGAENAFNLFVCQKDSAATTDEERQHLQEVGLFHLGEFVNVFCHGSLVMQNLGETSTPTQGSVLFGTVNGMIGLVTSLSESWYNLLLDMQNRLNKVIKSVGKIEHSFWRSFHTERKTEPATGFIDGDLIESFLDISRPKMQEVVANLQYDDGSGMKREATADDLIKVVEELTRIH
T4 sequence (Q13422 whole entry): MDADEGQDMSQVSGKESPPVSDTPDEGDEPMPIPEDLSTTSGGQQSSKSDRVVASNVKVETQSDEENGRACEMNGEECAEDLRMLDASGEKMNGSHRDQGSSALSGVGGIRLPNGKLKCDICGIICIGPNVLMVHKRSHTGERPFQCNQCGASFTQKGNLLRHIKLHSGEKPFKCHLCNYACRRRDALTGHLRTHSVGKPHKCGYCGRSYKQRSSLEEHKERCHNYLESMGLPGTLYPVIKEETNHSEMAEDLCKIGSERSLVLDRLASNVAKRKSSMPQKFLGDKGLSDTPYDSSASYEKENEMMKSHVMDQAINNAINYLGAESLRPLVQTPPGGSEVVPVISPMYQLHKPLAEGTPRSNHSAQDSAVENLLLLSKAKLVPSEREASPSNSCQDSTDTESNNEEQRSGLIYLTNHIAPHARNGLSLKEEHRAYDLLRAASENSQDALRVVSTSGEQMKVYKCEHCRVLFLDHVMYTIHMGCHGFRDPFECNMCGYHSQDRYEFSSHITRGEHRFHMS
T4 sequence (Q96SW2 whole entry): as the sequence (Q96SW2 whole entry) above
T4 sequence (Q16531 whole entry partner): as the sequence (Q16531 whole entry partner) above
T2 sequence (Q9UKT9 whole entry): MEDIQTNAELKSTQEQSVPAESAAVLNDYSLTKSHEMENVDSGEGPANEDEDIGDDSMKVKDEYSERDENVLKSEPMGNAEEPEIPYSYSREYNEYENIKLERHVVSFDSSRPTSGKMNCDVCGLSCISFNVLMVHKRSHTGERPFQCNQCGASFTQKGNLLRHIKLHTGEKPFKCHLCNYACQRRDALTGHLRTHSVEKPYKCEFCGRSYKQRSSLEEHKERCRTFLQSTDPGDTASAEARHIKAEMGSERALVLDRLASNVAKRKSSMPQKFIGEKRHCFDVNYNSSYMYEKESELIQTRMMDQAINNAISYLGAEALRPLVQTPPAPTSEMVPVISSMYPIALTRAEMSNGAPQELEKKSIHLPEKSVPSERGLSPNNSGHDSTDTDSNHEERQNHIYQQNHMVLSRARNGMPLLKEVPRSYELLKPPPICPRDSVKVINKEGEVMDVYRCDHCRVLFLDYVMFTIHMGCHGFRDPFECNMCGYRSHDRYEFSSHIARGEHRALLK
T2 sequence (Q96SW2 whole entry): as the sequence (Q96SW2 whole entry) above
T2 sequence (Q16531 whole entry partner): as the sequence (Q16531 whole entry partner) above
T3 sequence (P48729 whole entry): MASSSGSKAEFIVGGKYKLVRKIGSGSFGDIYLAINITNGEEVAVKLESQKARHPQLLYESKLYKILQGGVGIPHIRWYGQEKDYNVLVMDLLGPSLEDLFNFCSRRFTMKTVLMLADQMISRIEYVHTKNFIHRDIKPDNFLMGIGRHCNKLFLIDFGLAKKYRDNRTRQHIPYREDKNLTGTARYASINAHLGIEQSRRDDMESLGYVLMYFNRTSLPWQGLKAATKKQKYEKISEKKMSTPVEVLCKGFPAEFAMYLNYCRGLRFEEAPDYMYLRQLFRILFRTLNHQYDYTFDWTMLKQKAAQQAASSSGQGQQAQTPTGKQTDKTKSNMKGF
T3 sequence (Q96SW2 whole entry): as the sequence (Q96SW2 whole entry) above
T3 sequence (Q16531 whole entry partner): as the sequence (Q16531 whole entry partner) above
T1 sequence (P15170 whole entry): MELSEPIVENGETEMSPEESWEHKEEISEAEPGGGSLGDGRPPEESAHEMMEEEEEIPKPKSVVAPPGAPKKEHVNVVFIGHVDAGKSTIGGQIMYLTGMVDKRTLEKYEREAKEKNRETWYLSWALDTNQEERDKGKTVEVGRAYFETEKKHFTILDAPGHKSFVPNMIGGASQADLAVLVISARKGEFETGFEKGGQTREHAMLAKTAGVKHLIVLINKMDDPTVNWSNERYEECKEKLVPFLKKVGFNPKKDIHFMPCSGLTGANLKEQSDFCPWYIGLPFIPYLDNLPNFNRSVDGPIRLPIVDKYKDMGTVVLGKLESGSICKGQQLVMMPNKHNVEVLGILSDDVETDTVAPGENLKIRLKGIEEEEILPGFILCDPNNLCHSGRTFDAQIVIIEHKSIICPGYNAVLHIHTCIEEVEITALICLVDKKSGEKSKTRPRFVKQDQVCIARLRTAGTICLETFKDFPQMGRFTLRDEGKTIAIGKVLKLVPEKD
T1 sequence (Q96SW2 whole entry): as the sequence (Q96SW2 whole entry) above
T1 sequence (Q16531 whole entry partner): as the sequence (Q16531 whole entry partner) above

Row | SMILES | GSPT1 substrate protein remaining % (GSPT1) | IKZF3 substrate protein remaining % (IKZF3) | CK1α substrate protein remaining % (CK1α) | IKZF1 substrate protein remaining % (IKZF1) | IKZF2 substrate protein remaining % (IKZF2) | WEE1 substrate protein remaining % (WEE1)
1 | O=C1CCN(N2C(=O)c3ccc(CN4CCC(c5cccs5)CC4)cc3C2=O)C(=O)N1 [GT-07424, 2-(2,4-dioxotetrahydropyrimidin-1(2H)-yl)-5-((4-(thiophen-2-yl)piperidin-1-yl)methyl)isoindoline-1,3-dione] | A (0% ≤ substrate protein remaining % ≤80%) | A (0% ≤ substrate protein remaining % ≤80%) | B (80%< substrate protein remaining % ≤100%) | A (0% ≤ substrate protein remaining % ≤80%) | B (80%< substrate protein remaining % ≤100%) | A (0% ≤ substrate protein remaining % ≤80%)
2 | Cc1cc2c(C3CCN(Cc4ccc5c(c4)C(=O)N(N4CCC(=O)NC4=O)C5=O)CC3)ncnc2s1 [GT-08107, 2-(2,4-dioxotetrahydropyrimidin-1(2H)-yl)-5-((4-(6-methylthieno[2,3-d]pyrimidin-4-yl)piperidin-1-yl)methyl)isoindoline-1,3-dione] | A (0% ≤ substrate protein remaining % ≤80%) | A (0% ≤ substrate protein remaining % ≤80%) | A (0% ≤ substrate protein remaining % ≤80%) | A (0% ≤ substrate protein remaining % ≤80%) | A (0% ≤ substrate protein remaining % ≤80%) | A (0% ≤ substrate protein remaining % ≤80%)
3 | O=C1CCN(N2C(=O)c3ccc(CN4CCN(c5cc(Cl)nnc5Cl)CC4)cc3C2=O)C(=O)N1 [GT-07036, 5-((4-(3,6-dichloropyridazin-4-yl)piperazin-1-yl)methyl)-2-(2,4-dioxotetrahydropyrimidin-1(2H)-yl)isoindoline-1,3-dione] | A (0% ≤ substrate protein remaining % ≤80%) | B (80%< substrate protein remaining % ≤100%) | B (80%< substrate protein remaining % ≤100%) | B (80%< substrate protein remaining % ≤100%) | B (80%< substrate protein remaining % ≤100%) | B (80%< substrate protein remaining % ≤100%)
4 | O=C1CCN(N2C(=O)c3ccc(CN4CCN(c5c[nH]c6ncccc56)CC4)cc3C2=O)C(=O)N1 [GT-07528, 5-((4-(1H-pyrrolo[2,3-b]pyridin-3-yl)piperazin-1-yl)methyl)-2-(2,4-dioxotetrahydropyrimidin-1(2H)-yl)isoindoline-1,3-dione] | A (0% ≤ substrate protein remaining % ≤80%) | B (80%< substrate protein remaining % ≤100%) | A (0% ≤ substrate protein remaining % ≤80%) | B (80%< substrate protein remaining % ≤100%) | B (80%< substrate protein remaining % ≤100%) | B (80%< substrate protein remaining % ≤100%)
5 | O=C1CCN(N2C(=O)c3ccc(CN4CCC(c5cccc(F)c5Cl)CC4)cc3C2=O)C(=O)N1 [GT-06895, 5-((4-(2-chloro-3-fluorophenyl)piperidin-1-yl)methyl)-2-(2,4-dioxotetrahydropyrimidin-1(2H)-yl)isoindoline-1,3-dione] | B (80%< substrate protein remaining % ≤100%) | B (80%< substrate protein remaining % ≤100%) | B (80%< substrate protein remaining % ≤100%) | A (0% ≤ substrate protein remaining % ≤80%) | B (80%< substrate protein remaining % ≤100%) | B (80%< substrate protein remaining % ≤100%)
6 | Cc1cc2c(C3CCN(Cc4ccc5c(c4)CN(N4CCC(=O)NC4=O)C5=O)CC3)ncnc2s1 [GT-08083, 1-(5-((4-(6-methylthieno[2,3-d]pyrimidin-4-yl)piperidin-1-yl)methyl)-1-oxoisoindolin-2-yl)dihydropyrimidine-2,4(1H,3H)-dione] | A (0% ≤ substrate protein remaining % ≤80%) | B (80%< substrate protein remaining % ≤100%) | A (0% ≤ substrate protein remaining % ≤80%) | B (80%< substrate protein remaining % ≤100%) | B (80%< substrate protein remaining % ≤100%) | B (80%< substrate protein remaining % ≤100%)
7 | Cc1nc(C2CCN(Cc3ccc4c(c3)CN(N3CCC(=O)NC3=O)C4=O)CC2)c2c3c(sc2n1)CCCC3 [GT-08089, 1-(5-((4-(2-methyl-5,6,7,8-tetrahydrobenzo[4,5]thieno[2,3-d]pyrimidin-4-yl)piperidin-1-yl)methyl)-1-oxoisoindolin-2-yl)dihydropyrimidine-2,4(1H,3H)-dione] | A (0% ≤ substrate protein remaining % ≤80%) | B (80%< substrate protein remaining % ≤100%) | A (0% ≤ substrate protein remaining % ≤80%) | B (80%< substrate protein remaining % ≤100%) | B (80%< substrate protein remaining % ≤100%) | A (0% ≤ substrate protein remaining % ≤80%)
8 | O=C1CCN(N2Cc3cc(CN4CCN(c5ccc(F)c(F)c5)CC4)ccc3C2=O)C(=O)N1 [GT-06781, 1-(5-((4-(3,4-difluorophenyl)piperazin-1-yl)methyl)-1-oxoisoindolin-2-yl)dihydropyrimidine-2,4(1H,3H)-dione] | A (0% ≤ substrate protein remaining % ≤80%) | B (80%< substrate protein remaining % ≤100%) | A (0% ≤ substrate protein remaining % ≤80%) | B (80%< substrate protein remaining % ≤100%) | B (80%< substrate protein remaining % ≤100%) | B (80%< substrate protein remaining % ≤100%)
9 | O=C1CCN(N2C(=O)c3ccc(CN4CCN(C(c5ccc(Cl)cc5)c5ccc(Cl)cc5)CC4)cc3C2=O)C(=O)N1 [GT-05269, 5-((4-(bis(4-chlorophenyl)methyl)piperazin-1-yl)methyl)-2-(2,4-dioxotetrahydropyrimidin-1(2H)-yl)isoindoline-1,3-dione] | A (0% ≤ substrate protein remaining % ≤80%) | B (80%< substrate protein remaining % ≤100%) | A (0% ≤ substrate protein remaining % ≤80%) | B (80%< substrate protein remaining % ≤100%) | B (80%< substrate protein remaining % ≤100%) | B (80%< substrate protein remaining % ≤100%)
10 | O=C1CCN(N2Cc3cc(CN4CCN(c5ccnc(Cl)c5F)CC4)ccc3C2=O)C(=O)N1 [GT-07069, 1-(5-((4-(2-chloro-3-fluoropyridin-4-yl)piperazin-1-yl)methyl)-1-oxoisoindolin-2-yl)dihydropyrimidine-2,4(1H,3H)-dione] | B (80%< substrate protein remaining % ≤100%) | B (80%< substrate protein remaining % ≤100%) | B (80%< substrate protein remaining % ≤100%) | B (80%< substrate protein remaining % ≤100%) | B (80%< substrate protein remaining % ≤100%) | A (0% ≤ substrate protein remaining % ≤80%)
11 | CC1(C)CCC(CN2CCN(Cc3ccc4c(c3)C(=O)N(N3CCC(=O)NC3=O)C4=O)C(C(F)(F)F)C2)=C(c2ccc(Cl)cc2)C1 (stereo not drawn) [GT-07301, 5-((4-((4′-chloro-5,5-dimethyl-3,4,5,6-tetrahydro-[1,1′-biphenyl]-2-yl)methyl)-2-(trifluoromethyl)piperazin-1-yl)methyl)-2-(2,4-dioxotetrahydropyrimidin-1(2H)-yl)isoindoline-1,3-dione] | A (0% ≤ substrate protein remaining % ≤80%) | B (80%< substrate protein remaining % ≤100%) | B (80%< substrate protein remaining % ≤100%) | B (80%< substrate protein remaining % ≤100%) | B (80%< substrate protein remaining % ≤100%) | B (80%< substrate protein remaining % ≤100%)
12 | Cc1ccc(C2=CCN(Cc3ccc4c(c3)C(=O)N(N3CCC(=O)NC3=O)C4=O)CC2)s1 [GT-05310, 2-(2,4-dioxotetrahydropyrimidin-1(2H)-yl)-5-((4-(5-methylthiophen-2-yl)-3,6-dihydropyridin-1(2H)-yl)methyl)isoindoline-1,3-dione] | A (0% ≤ substrate protein remaining % ≤80%) | B (80%< substrate protein remaining % ≤100%) | B (80%< substrate protein remaining % ≤100%) | B (80%< substrate protein remaining % ≤100%) | B (80%< substrate protein remaining % ≤100%) | B (80%< substrate protein remaining % ≤100%)
